{
  "source": "ChEMBL document CHEMBL4507319",
  "about": "(2021)",
  "key": {"[1]": {"target": "T1, Tyrosine-protein kinase JAK3 (Homo sapiens) (UniProt P52333)", "T1 sequence (whole entry)": "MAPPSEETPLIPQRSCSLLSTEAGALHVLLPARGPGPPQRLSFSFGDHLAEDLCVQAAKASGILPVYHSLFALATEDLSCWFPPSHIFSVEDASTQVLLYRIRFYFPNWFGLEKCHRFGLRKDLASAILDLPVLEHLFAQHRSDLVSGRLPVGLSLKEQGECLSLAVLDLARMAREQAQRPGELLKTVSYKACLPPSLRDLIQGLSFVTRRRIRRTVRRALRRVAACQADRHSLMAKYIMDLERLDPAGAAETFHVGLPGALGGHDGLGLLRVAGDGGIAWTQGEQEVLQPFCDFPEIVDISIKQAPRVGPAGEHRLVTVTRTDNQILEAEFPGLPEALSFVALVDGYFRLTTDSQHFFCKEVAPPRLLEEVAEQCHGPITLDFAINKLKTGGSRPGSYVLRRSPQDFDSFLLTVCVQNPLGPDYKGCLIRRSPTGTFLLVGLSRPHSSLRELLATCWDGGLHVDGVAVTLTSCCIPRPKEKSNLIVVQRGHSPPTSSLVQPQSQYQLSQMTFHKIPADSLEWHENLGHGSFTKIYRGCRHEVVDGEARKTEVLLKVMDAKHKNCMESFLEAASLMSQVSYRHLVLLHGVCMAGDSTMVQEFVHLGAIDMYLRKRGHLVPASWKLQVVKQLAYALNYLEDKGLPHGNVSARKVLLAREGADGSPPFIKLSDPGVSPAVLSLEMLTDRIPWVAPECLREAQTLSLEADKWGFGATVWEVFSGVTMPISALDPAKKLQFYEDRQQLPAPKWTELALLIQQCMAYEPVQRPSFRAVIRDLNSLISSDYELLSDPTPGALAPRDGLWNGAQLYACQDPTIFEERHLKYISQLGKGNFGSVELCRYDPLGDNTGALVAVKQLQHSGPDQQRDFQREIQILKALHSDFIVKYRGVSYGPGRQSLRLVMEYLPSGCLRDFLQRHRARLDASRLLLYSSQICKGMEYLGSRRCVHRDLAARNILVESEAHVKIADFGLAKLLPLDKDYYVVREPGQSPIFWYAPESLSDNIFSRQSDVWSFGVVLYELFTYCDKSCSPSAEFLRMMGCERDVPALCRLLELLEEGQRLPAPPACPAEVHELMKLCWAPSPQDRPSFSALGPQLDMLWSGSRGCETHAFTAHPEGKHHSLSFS", "assay": "JAK3(h) Eurofins kinase panel", "conditions": "Compound concentration 1.0 uM"}, "[2]": {"target": "T2, Ephrin type-B receptor 4 (Homo sapiens) (UniProt P54760)", "T2 sequence (whole entry)": "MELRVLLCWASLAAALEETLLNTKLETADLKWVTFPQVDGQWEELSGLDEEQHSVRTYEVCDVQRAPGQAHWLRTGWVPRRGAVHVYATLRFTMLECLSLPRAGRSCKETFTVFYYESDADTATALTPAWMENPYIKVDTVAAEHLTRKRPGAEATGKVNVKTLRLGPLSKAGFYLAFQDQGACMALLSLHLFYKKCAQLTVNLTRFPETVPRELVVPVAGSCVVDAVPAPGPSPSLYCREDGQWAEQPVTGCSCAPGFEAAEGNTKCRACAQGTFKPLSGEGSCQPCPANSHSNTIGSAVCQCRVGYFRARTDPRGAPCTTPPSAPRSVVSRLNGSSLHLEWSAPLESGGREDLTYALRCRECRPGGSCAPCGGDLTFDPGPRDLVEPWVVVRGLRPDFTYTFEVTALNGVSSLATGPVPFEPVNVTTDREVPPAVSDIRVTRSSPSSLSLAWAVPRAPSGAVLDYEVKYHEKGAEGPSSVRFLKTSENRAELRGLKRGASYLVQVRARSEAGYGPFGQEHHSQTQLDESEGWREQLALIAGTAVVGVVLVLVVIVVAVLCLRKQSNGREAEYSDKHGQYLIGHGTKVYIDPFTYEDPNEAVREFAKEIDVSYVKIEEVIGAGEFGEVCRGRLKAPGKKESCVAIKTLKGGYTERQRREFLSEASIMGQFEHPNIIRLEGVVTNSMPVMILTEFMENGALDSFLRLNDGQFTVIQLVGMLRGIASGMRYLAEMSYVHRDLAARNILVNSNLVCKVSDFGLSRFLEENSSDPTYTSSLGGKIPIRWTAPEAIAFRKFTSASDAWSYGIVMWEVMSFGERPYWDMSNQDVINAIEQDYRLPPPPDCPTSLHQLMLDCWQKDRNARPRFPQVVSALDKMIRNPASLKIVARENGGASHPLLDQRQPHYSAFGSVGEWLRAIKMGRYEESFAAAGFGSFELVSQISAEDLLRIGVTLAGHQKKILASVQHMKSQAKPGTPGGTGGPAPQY", "assay": "EphB4(h) Eurofins kinase panel", "conditions": "Compound concentration 1.0 uM"}, "[3]": {"target": "T3, Dual specificity tyrosine-phosphorylation-regulated kinase 2 (Homo sapiens) (UniProt Q92630)", "T3 sequence (whole entry)": "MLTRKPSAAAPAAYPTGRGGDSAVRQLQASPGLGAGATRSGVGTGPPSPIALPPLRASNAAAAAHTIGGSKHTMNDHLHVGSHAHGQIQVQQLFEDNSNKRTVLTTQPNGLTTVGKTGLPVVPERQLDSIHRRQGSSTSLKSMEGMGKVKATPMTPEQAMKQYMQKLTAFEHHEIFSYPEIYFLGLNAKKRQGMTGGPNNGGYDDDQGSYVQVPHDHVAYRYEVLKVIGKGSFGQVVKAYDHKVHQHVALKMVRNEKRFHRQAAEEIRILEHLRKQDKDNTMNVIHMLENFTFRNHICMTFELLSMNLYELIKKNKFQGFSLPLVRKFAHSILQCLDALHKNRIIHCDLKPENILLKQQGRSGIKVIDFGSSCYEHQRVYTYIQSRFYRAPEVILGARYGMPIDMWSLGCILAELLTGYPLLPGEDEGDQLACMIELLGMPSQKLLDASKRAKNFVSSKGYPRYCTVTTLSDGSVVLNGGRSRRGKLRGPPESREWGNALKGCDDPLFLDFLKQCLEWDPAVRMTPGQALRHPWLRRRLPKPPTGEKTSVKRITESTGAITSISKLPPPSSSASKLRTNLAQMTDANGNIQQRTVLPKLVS", "assay": "DYRK2(h) Eurofins kinase panel", "conditions": "Compound concentration 1.0 uM"}, "[4]": {"target": "Non-receptor tyrosine-protein kinase TYK2 (Homo sapiens) (UniProt P29597)", "sequence (P29597 whole entry)": "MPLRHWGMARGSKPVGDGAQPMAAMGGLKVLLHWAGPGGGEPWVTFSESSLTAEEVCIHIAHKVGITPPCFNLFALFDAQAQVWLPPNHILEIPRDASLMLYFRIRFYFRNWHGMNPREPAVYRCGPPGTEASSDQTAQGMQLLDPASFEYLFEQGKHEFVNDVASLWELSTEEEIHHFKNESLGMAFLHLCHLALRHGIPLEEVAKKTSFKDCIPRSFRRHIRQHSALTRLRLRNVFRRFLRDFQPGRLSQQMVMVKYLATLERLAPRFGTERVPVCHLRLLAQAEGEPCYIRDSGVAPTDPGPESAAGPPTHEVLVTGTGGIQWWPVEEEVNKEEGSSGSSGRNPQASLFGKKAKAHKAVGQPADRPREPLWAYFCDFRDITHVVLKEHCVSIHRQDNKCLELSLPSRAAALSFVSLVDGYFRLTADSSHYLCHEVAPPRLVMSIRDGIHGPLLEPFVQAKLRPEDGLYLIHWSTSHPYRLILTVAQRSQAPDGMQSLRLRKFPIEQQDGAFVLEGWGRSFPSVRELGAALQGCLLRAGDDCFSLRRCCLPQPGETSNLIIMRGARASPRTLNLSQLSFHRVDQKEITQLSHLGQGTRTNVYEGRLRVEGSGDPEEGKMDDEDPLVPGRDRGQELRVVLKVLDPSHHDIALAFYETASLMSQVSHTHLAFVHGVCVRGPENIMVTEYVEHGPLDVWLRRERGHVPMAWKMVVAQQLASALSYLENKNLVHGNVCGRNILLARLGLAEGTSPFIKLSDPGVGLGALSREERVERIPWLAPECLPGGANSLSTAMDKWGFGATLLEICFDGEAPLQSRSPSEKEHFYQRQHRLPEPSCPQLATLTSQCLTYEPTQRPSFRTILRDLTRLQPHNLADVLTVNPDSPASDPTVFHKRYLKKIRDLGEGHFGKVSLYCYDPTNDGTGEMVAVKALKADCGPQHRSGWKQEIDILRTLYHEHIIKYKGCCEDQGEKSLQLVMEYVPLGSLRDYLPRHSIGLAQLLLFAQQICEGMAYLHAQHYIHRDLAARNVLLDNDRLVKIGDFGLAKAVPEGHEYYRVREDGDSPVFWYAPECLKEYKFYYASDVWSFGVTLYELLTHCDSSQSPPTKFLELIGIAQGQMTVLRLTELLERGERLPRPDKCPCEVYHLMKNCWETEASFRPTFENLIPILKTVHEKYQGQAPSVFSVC", "assay": "TYK2(h) Eurofins kinase panel", "conditions": "Compound concentration 1.0 uM"}, "SW480": {"test_system": "SW480", "assay": "SW480 cell line Proliferation assay", "assay_type": "functional, Homo sapiens", "conditions": "time 3 day"}, "[5]": {"target": "Phosphatidylinositol 4-phosphate 3-kinase C2 domain-containing subunit alpha (Homo sapiens) (UniProt O00443)", "sequence (O00443 whole entry, the tested form may be a part)": "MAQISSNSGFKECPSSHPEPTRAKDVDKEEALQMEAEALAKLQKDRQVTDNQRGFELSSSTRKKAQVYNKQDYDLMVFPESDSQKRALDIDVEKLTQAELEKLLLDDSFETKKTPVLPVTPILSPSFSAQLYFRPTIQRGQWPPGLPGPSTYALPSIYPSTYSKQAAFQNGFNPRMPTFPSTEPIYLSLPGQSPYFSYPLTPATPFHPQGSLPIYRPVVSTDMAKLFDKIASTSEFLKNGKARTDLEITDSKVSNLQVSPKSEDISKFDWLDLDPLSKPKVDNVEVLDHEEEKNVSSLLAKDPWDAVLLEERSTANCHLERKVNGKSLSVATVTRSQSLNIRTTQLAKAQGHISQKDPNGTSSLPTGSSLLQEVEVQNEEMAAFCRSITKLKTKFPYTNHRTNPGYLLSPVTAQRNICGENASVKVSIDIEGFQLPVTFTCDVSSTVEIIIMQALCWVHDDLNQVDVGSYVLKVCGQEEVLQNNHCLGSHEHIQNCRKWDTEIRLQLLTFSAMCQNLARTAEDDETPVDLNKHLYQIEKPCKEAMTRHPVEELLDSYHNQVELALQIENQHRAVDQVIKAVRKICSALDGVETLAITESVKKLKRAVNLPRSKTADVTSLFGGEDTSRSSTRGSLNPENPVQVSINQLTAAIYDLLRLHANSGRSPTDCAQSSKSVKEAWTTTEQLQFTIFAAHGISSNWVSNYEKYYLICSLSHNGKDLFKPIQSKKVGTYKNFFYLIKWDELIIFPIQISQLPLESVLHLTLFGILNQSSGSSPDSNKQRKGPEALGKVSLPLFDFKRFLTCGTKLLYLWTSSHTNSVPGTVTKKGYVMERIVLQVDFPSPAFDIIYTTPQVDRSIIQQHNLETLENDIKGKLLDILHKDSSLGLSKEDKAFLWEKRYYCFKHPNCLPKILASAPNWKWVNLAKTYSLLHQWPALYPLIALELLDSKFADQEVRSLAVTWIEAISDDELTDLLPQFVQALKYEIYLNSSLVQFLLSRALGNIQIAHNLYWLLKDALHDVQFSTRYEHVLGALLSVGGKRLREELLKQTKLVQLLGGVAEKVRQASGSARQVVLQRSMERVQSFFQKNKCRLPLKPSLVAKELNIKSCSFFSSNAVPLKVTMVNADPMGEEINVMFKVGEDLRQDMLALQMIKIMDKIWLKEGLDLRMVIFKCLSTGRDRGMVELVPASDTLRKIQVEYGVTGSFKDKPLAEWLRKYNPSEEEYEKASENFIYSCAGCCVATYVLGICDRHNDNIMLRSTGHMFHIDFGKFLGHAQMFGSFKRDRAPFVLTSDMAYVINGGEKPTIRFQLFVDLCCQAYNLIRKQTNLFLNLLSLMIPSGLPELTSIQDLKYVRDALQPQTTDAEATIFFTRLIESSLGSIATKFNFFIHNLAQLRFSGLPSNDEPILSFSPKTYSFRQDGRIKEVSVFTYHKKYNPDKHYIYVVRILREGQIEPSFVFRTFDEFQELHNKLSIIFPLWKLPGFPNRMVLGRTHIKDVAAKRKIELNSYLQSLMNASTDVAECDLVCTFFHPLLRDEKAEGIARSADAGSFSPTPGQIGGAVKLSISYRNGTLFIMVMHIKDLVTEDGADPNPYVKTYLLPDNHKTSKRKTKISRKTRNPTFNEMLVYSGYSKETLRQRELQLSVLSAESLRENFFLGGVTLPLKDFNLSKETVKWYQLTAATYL", "assay": "PI3KC2a(h) Eurofins kinase panel", "conditions": "Compound concentration 1.0 uM"}},
  "data": [
    {"smiles": "CCc1ccccc1C(=O)Nc1n[nH]c2c(C)c(F)c(C3C(C#N)=C(C)N(C)C(C)=C3C#N)cc12", "note": "[BAY-3827]", "values": [
      {"measurement": "% residual kinase activity", "setting": "[1]", "result": 93, "unit": "%"},
      {"measurement": "% residual kinase activity", "setting": "[2]", "result": 77, "unit": "%"},
      {"measurement": "% residual kinase activity", "setting": "[3]", "result": 100, "unit": "%"},
      {"measurement": "% residual kinase activity", "setting": "[4]", "result": 87, "unit": "%"},
      {"measurement": "Cell Proliferation IC50", "setting": "SW480", "result": 27.8, "unit": "µM"},
      {"measurement": "% residual kinase activity", "setting": "[5]", "result": 103, "unit": "%"}
    ]}
  ]
}
